Source: the supplement of paper PMC6045584
± gives the standard deviation of the averaged measurements.

Key:
[1] = compound: C[C@H](CN(C)C)Oc1nc(Nc2cc3cccc(Cl)c3cn2)cnc1C#N; assay: surviving fraction relative to DMSO-only wells; higher = less growth inhibition; settings: exposure time: 5 days
Procedure, shortened: (§1)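 For each tumour cell line, log-phase cells were put into 384-well plates at 250–500 cells per well, then after 24 hours exposed continuously for five days to inhibitors at 0.5, 1, 5, 10, 50, 100, 500 and 1000 nM. Viability was assessed by CellTiter-Glo luminescence, with surviving fraction expressed relative to the median of DMSO-only wells. Lines were screened three times and retained only if replicate Pearson r exceeded 0.7 and median Z' exceeded 0.3.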

[2] = compound: CCc1cc(Nc2nccc(-c3c(-c4ccc(OC)c(C(=O)Nc5c(F)cccc5F)c4)nc4ccccn34)n2)c(OC)cc1N1CCC(N2CCN(S(C)(=O)=O)CC2)CC1; assay: as above; settings: exposure time: 5 days
Procedure, shortened: as §1

Test System	surviving fraction ([1]; 0.5 nM)	surviving fraction ([1]; 1 nM)	surviving fraction ([1]; 5 nM)	surviving fraction ([1]; 10 nM)	surviving fraction ([1]; 50 nM)	surviving fraction ([1]; 100 nM)	surviving fraction ([1]; 500 nM)	surviving fraction ([1]; 1000 nM)	surviving fraction ([2]; 0.5 nM)	surviving fraction ([2]; 1 nM)	surviving fraction ([2]; 5 nM)	surviving fraction ([2]; 10 nM)	surviving fraction ([2]; 50 nM)	surviving fraction ([2]; 100 nM)	surviving fraction ([2]; 500 nM)	surviving fraction ([2]; 1000 nM)
HCC1395 BREAST	0.957 ± 0.076	1.14 ± 0.13	1.161 ± 0.011	1.15 ± 0.14	1.27 ± 0.16	1.22 ± 0.029	0.729 ± 0.1	0.671 ± 0.15	0.903 ± 0.1	0.903 ± 0.17	0.965 ± 0.24	0.916 ± 0.037	1.13 ± 0.2	0.831 ± 0.19	0.855 ± 0.22	0.934 ± 0.17
HCC1806 BREAST	1.14 ± 0.095	1.09 ± 0.062	1.25 ± 0.2	1.13 ± 0.055	0.991 ± 0.068	0.633 ± 0.069	0.0587 ± 0.008	0.0547 ± 0.0029	1.05 ± 0.032	0.985 ± 0.042	1.04 ± 0.025	1.05 ± 0.1	0.993 ± 0.1	1.03 ± 0.13	0.93 ± 0.13	0.904 ± 0.085
HCC1954 BREAST	1.14 ± 0.11	1.24 ± 0.018	1.32 ± 0.023	1.11 ± 0.15	1.35 ± 0.051	1.04 ± 0.024	0.48 ± 0.072	0.242 ± 0.02	0.996 ± 0.012	0.821 ± 0.02	0.904 ± 0.12	1.1 ± 0.052	0.982 ± 0.06	1 ± 0.1	0.913 ± 0.11	0.638 ± 0.068
HCT15 LARGE INTESTINE	1.05 ± 0.022	1.04 ± 0.05	1.04 ± 0.022	1.05 ± 0.038	1.06 ± 0.051	1.06 ± 0.069	0.998 ± 0.057	0.799 ± 0.11	0.963 ± 0.028	0.995 ± 0.028	0.99 ± 0.027	1.03 ± 0.03	1 ± 0.02	1.05 ± 0.016	1.12 ± 0.036	1.06 ± 0.017
HELA CERVIX	1.01 ± 0.019	1.03 ± 0.043	0.999 ± 0.058	0.988 ± 0.079	1.11 ± 0.037	1.07 ± 0.048	1.09 ± 0.085	0.831 ± 0.029	1.05 ± 0.035	1.07 ± 0.04	1.08 ± 0.027	1.09 ± 0.041	1.05 ± 0.05	1.07 ± 0.025	1.01 ± 0.066	0.97 ± 0.026
HOS BONE	1.01 ± 0.014	1.01 ± 0.024	0.996 ± 0.018	0.9907 ± 0.005	1.01 ± 0.035	1.002 ± 0.01	0.619 ± 0.023	0.16 ± 0.017	1.008 ± 0.004	1.028 ± 0.0032	1.06 ± 0.018	1.05 ± 0.028	1.06 ± 0.026	1.047 ± 0.0083	0.956 ± 0.017	0.89 ± 0.014
HOSMNG BONE	0.943 ± 0.14	0.937 ± 0.064	0.984 ± 0.072	0.964 ± 0.047	1.02 ± 0.072	1.05 ± 0.079	0.983 ± 0.096	0.0657 ± 0.0067	0.956 ± 0.057	0.9987 ± 0.0055	0.989 ± 0.024	1.02 ± 0.086	1 ± 0.051	1.05 ± 0.087	1.05 ± 0.061	1.05 ± 0.057
HSSYII SYNOVIAL	0.9423 ± 0.0023	0.918 ± 0.0061	0.956 ± 0.042	0.94 ± 0.066	0.884 ± 0.039	0.74 ± 0.015	0.139 ± 0.0076	0.077 ± 0.0027	0.917 ± 0.021	0.933 ± 0.033	1.01 ± 0.047	0.951 ± 0.045	0.915 ± 0.043	0.958 ± 0.037	0.899 ± 0.034	0.798 ± 0.021
HT1080 SOFT TISSUE	1.04 ± 0.044	1.03 ± 0.011	1.04 ± 0.017	1.04 ± 0.023	1 ± 0.028	0.972 ± 0.041	0.707 ± 0.018	0.398 ± 0.012	1.05 ± 0.037	1.05 ± 0.023	1.02 ± 0.0067	1.03 ± 0.031	1.05 ± 0.024	1.02 ± 0.038	0.9943 ± 0.0058	0.946 ± 0.034
HU09 BONE	1.05 ± 0.11	0.964 ± 0.017	1.02 ± 0.086	1.02 ± 0.092	1.07 ± 0.13	0.903 ± 0.12	0.437 ± 0.063	0.261 ± 0.054	0.897 ± 0.047	0.949 ± 0.12	1.08 ± 0.16	1.06 ± 0.032	1.03 ± 0.063	1.1 ± 0.048	0.88 ± 0.052	0.872 ± 0.085
